# Columns and labels:
# [1] = system: optic nerve (retinal ganglion cell axons); assay: optic nerve transection after intravitreal injection, neurofilament Western blot; assay type: in vivo, rat; conditions: 5 μl of 100 mM intravitreal, 24 hours before transection; 4 days after transection
# Protocol: FIG. 9 illustrates optic nerve transection after intravitreal injection of NAD biosynthetic substrates NAD, NMN, NmR, or Nam was injected into intravitreal compartment of left rat eye and allowed to incorporate retinal ganglion cells for 24 hours after which, left optic nerve was transected by eye enucleation and right and left optic nerves were collected at 4 days after transection and analyzed by Western blotting in which optic nerves transected from […] without any treatment prior to axotomy were used for negative control; showing in the figure, the quantitative analysis data of percentage of remaining neurofilament immunoreactivity from transected optic nerve relative to non-transected±S.D.
# Administration of NAD biosynthetic substrates and optic Nerve transection. Nam, NMN, NmR, or NAD was dissolved in PBS at the concentration of 100 mM or 1 M. Each of 5 μl solution was injected into left intravitreal component under the anesthesia at a rate of […]. The left optic nerve was transected at 24 hours after intravitreal injection and optic nerve was recovered at indicated time. Optic nerve tissue was homogenized in 100 μl of a buffer containing 100 mM tris-HCl (pH 6.8), 1% SDS, and 1 mM DTT. Fifty μg of protein for each sample was analyzed by the Western blotting using anti-neurofilament antibody 2H3 (Developmental Studies Hybridoma Center) and peroxidase-conjugated secondary antibody (Jackson ImmunoResearch). The degeneration rate was calculated from the ratio of the neurofilament immunoreactivity of transected vs. contralateral nerves.
# Transection of optic nerve is an in vivo model which can be used to investigate mechanisms leading to Wallerian degeneration and following retinal ganglion cell (RGC) death observed in human diseases such as glaucoma. In the C57BL/Wlds mouse strain, optic nerve degeneration during Wallerian degeneration after axotomy is dramatically slowed. In addition, intravitreal injection is used for screening of compounds that protect RGC axon from degeneration in vivo and thus we can asses the axon protective effect of each NAD biosynthetic substrates in vive by intraocular injection of compounds including NAD, NMN, NmR, and Nam. From in vitro Wallerian degeneration assay, 1 mM of NAD, NMN, and NmR in the culture media is enough to protect axon from degeneration. We initially injected 5 μl of 100 mM or 1 M NAD solution into left intravitreal compartment. After 24 hours incubation, left optic nerve was transected and control (right) and axotomized (left) optic nerve were collected at 3, 4, and 5 days after transection. Neurofilament immunoreactivity from the axotomized optic nerve was measured and normalized against the value obtained from the right side of the optic nerve.
# [2] = system: Tfam, PGC-1α and MFN2 mRNA; assay: mitochondrial biogenesis markers, quantitative RT-PCR in Neuro2a cells; assay type: cell-based; conditions: 10 μM, 3 d
# Protocol: Three days later cells were shifted to serum-starvation medium containing DMSO (control) or resveratrol (10 μM). In addition, uninfected Neuro2a cells in serum-starvation medium were treated with resveratrol alone, the AMPK inhibitor Compound C (CC, Biomol International L.P. (Plymouth Meeting, Pa.)) (10 μM) alone or with resveratrol and CC together. […] Values were normalized to the 18S transcript. Data shown is representative of two independent experiments.
# Protein and mRNA analysis. […] Quantitative RT-PCR analysis was performed using Sybr-Green methodology on a model 7700 instrument (Applied Biosystems) as previously described (Araki et al., 2004, Science 305:1010-1013).
# We treated Neuro2a cells for 3d with either DMSO (control) or resveratrol (10 μM) in the presence or absence of the AMPK inhibitor Compound C (10 μM). We assessed mitochondrial biogenesis by monitoring mRNA levels of mitofusin 2 (MFN2), a mitochondrial protein and marker of mitochondrial mass and two key regulators of mitochondrial biogenesis, peroxisome proliferator activated receptor γ coactivator 1α (PGC1α) and mitochondrial transcription factor A (Tfam) (Kelly, et al., 2004, Genes Dev 18:357-368).
# [3] = system: neuro2A cells; assay: Neuro2a cell proliferation, Ki67 immunocytochemistry; assay type: cell-based; conditions: 0.2% fetal calf serum; AICAR 1 mM or resveratrol 10 μM; 24 h after plating; DMSO controls 50%
# Protocol: Neuro2a cells are a widely used as in vitro model of neuronal differentiation. These cells cease to proliferate and begin to differentiate, as evidenced by neurite outgrowth, in response to serum starvation, retinoic acid, or growth factors like neurotrophins and GDNF family ligands. […] Neuro2a cells grown under serum starvation conditions (0.2% fetal calf serum) were treated with AICAR (1 mM) or resveratrol (10 μM).
# [4] = system: neuro2A cells; assay: survival of Neuro2A cells in nutrient-deprived conditions; assay type: cell-based; conditions: regardless of the FCS concentration (10% or 0.2%)
# Protocol: When Neuro2A cells are grown in culture in presence of 10% FCS, cells proliferate and ultimately die if cells are not passaged. If grown in the presence of 0.2% FCS, neuro2A cells differentiate and project neurites but ultimately die within one week.
Structure (SMILES),"neurofilament immunoreactivity of axotomized optic nerve, of non-axotomized optic nerve [1]",increase in MFN2 mRNA [2],increase in PGC-1α mRNA [2],increase in Tfam mRNA [2],proliferating cells (Ki67) [3],cell survival [4]
"NC(=O)c1cccnc1 [Nam, nicotinamide]",did not show any difference from the control animals,–,–,–,–,–
Oc1ccc(C=Cc2cc(O)cc(O)c2)cc1 [resveratrol],–,2 fold,2 fold,~18 fold,11%,resistant to death for a prolonged period of time

# Reference: patent publication US20160367497A1, “METHODS AND COMPOSITIONS FOR TREATING NEUROPATHIES” (Washington University, priority 2007, published 2016)
